{"source": "patent EP0061711A1", "about": "“10B-Carboxyamino boranes, process for their preparation and their use as medicaments in the neutron-capture therapy” (priority 1981, dated 1982)", "key": {"[1]": {"test": "acute toxicity (DL50) in the mouse, i.p.", "conditions": "in vivo, ip, Maus"}, "[2]": {"test": "therapeutic results in combination with neutrons (model not stated)", "conditions": "in Verbindung mit Neutronen, compared with N-Trimethyl-10B-carboxyaminoboran"}, "Sarkom 180": {"test_system": "Sarkom 180", "test": "sarcoma 180 in NMRI mice: tumour size and survival, alone or with gamma rays or thermal neutrons", "type": "in vivo, NMRI-Mäuse", "conditions": "for überlebende Tiere: 40 Tage after start of treatment", "source_text": "Die geringe Toxizität der erfindungsgemäß verwendeten Substanz ermöglicht eine so hohe Dosierung, daß sowohl eine begrenzte Eigenwirkung zum Tragen kommt als auch insbesondere eine ausreichende Erhöhung der ^10Bor-Konzentration in den erkrankten Zellen erreicht wird. So wurde festgestellt, daß die Toxizität bei der Maus i.p. eine DL50 um 2000 m^g/k^g ergibt. Pharmakologisch wurde festgestellt, daß N-Trimethyl-^10B-carboxyaminoboran den Einbau von 125 Jod -^desoxyuridin bei der gesunden Maus senkt. Weiterhin senkt es den Einbau von ^125Jod -desoxyuridin in das Sarkom 180 der Maus.\nBesonders eindrucksvoll ist die Veränderung der Überlebenszeiten der Sarkom 180 tragenden NMRI-Mäuse. Während 40 Tage nach Beginn der Behandlung von den unbehandelten und den nur mit Neutronen behandelten Tieren ca. 90% am Tumor gestorben sind, überleben zu diesem Zeitpunkt ca. 40% der nur mit N-Trimethyl-^10B-carboxy-aminoboran und ca. 75 % der mit dieser Substanz und Neutronen behandelten Tiere.\nEin Vergleich mit Natriumpentaborat und Neutronen zeigt, daß nur 20 bis 30 % der Sarkom-Tiere überleben.\n(§1) Diese pharmakologischen Befunde wurden zunächst noch mit einem N-Trimethyl- B-carboxy-aminoboran erhalten, welches nur 20 % ^10Bor enthielt. Durch Steigerung des ^10Bor-Gehalts auf 80 bis 90% erhöht sich die Antitumorwirkung durch Neutroneneinfang um das. 4 bis 5-fache: • C-57 BL/6j Mäuse mit Adenocarcinom EO 771 werden in drei Gruppen aufgeteilt: • Gruppe 1 dient als Kontrolle Gruppe 2 wird 6 Minuten mit thermischen Neutronen bestrahlt Gruppe 3 erhält 10 mg N-Trimethyl-^10B-carboxyaminoboran intraperitonal (i.p.) und wird nach 6 Stunden - dem Zeitpunkt der optimalen Anreicherung im Tumorgewebe - für 6 Minuten mit thermischen Neutronen bestrahlt."}, "gesunden Maus": {"test_system": "gesunden Maus", "test": "incorporation of 125I-deoxyuridine in the healthy mouse", "type": "in vivo", "conditions": "gesunde Maus"}, "Sarkom 180 der Maus": {"test_system": "Sarkom 180 der Maus", "test": "incorporation of 125I-deoxyuridine into sarcoma 180 of the mouse", "type": "in vivo", "conditions": "in Sarkom 180 der Maus"}, "Adenocarcinom EO 771": {"test_system": "Adenocarcinom EO 771", "test": "adenocarcinoma EO 771 in C-57 BL/6j mice, neutron capture therapy", "type": "in vivo, C-57 BL/6j Mäuse", "conditions": "10 mg i.p., after 6 Stunden 6 Minuten thermische Neutronen", "protocol": "as §1"}, "[3]": {"test": "boron accumulation in tumour tissue versus blood", "type": "in vivo"}, "water solubility": {"test": "water solubility", "type": "physicochemical", "conditions": "for intravenous application"}, "[4]": {"test": "toxicity compared with the compound of the invention (species not stated)"}}}
{"compound": "[NH3+][10BH2-]C(=O)O", "note": "[Ammoniak- ^10B-carboxyboran, Ammoniak- ^10 B-carboxyboran]", "values": [{"measurement": "LD50", "setting": "[1]", "result": "~2500", "unit": "mg/kg"}, {"measurement": "therapeutische Ergebnisse", "setting": "[2]", "result": "Noch bessere therapeutische Ergebnisse"}]}
{"compound": "C[N+](C)(C)[BH2-]C(=O)O", "note": "[N-Trimethyl- B-carboxy-aminoboran, reference compound]", "values": [{"measurement": "lokale oder systemische Schäden", "setting": "Sarkom 180; surviving animals", "result": "An keinem der überlebenden Tiere wurden lokale oder systemische Schäden beobachtet"}]}
{"compound": "C[N+](C)(C)[10BH2-]C(=O)O", "note": "[N-Trimethyl-^10B-carboxyaminoboran]", "values": [{"measurement": "LD50", "setting": "[1]", "result": "~2000", "unit": "mg/kg"}, {"measurement": "Einbau von 125Jod -desoxyuridin", "setting": "gesunden Maus", "result": "senkt"}, {"measurement": "Einbau von 125Jod -desoxyuridin", "setting": "Sarkom 180 der Maus", "result": "senkt"}, {"measurement": "überlebende Tiere", "setting": "Sarkom 180; substance alone", "result": "ca. 40%"}, {"measurement": "überlebende Tiere", "setting": "Sarkom 180; substance and Neutronen", "result": "ca. 75%"}, {"measurement": "Tumorgröße", "setting": "Sarkom 180; Sarkom 180 der Maus, substance alone", "result": "Verkleinerung des Tumors"}, {"measurement": "Tumorwachstum", "setting": "Sarkom 180; combination with γ-Strahlen", "result": "positiv beeinflußt"}, {"measurement": "Tumorvolumen", "setting": "Sarkom 180; simultaneous treatment with thermischen Neutronen", "result": "wesentlich stärker verkleinert als durch die Einzelkomponenten"}, {"measurement": "Tumorgröße", "setting": "Adenocarcinom EO 771", "result": "nimmt der Tumor in Gruppe 3 nach der kombinierten Behandlung an Größe ab"}, {"measurement": "time until tumour is reduced to a minimum", "setting": "Adenocarcinom EO 771", "result": "~7", "unit": "Tagen"}, {"measurement": "Kp", "setting": "[3]; tumour to blood, 6 bis 12 Stunden after intravenous injection, read-out: Bor-Konzentration im Tumor relative to Blut", "result": "2 to 3"}, {"measurement": "Tmax", "setting": "[3]; tumour, ip, after i.p. application, read-out: Zeitpunkt der optimalen Anreicherung im Tumorgewebe", "result": 6, "unit": "h"}, {"measurement": "Wasserlöslichkeit", "setting": "water solubility", "result": "ausreichend wasserlöslich"}]}
{"compound": "Natriummonomercaptoundecahydrodecaborat", "values": [{"measurement": "toxicity relative to the compound of the invention", "setting": "[4]", "result": "~5", "unit": "mal"}]}
